Results reported in patent publication US11807650B2, “NMDA receptor modulators and uses thereof” (Novartis AG, priority 2016, dated 2023).

Biological target: T1, human GRIN1 (transcript variant NR1-3) and GRIN2D expressed in Xenopus oocytes (Homo sapiens, UniProt O15399)
T1 construct: GenScript (GRIN2D synthesis) SC115601; host or cells: Xenopus oocytes injected with cRNA (1 GluN1 : 2 GluN2)
Assay: NR2D oocyte potentiation assay (two-electrode voltage clamp)
Format: cell-based
Conditions: 10 uM test compound; glutamate and glycine 10 μM each; holding potential −40 mV
Method: NR2D Oocyte Potentiation Assay. Xenopus oocytes (Xenopus 1, Dexter, Mich.) were initially separated from the lobes of an ovary using surgical forceps; they were then defolliculated by constant agitation at room temperature in OR-2 buffer (82.5 mM NaCl; 2.5 mM KCl; 1 mM MgCl2; 5 mM HEPES; pH 7.4) containing 2 mg/ml collagenase Type 1 (Fisher Scientific, USA) for 1.5-2 hours. The cells were then gently aspirated with a Pasteur pipette to remove the follicular tissue; this was followed by washing three times with OR-2 to remove all traces of collagenase. The oocytes were then washed in ND-96 (96 mM NaCl, 2 mM KCl, 1.8 mM CaCl2, 1 mM MgCl2, 5 mM HEPES, 50 ng/L gentamycin, 100 units/ml penicillin and 100 μg/ml streptomycin; pH 7.6) three times and this was followed by incubation in ND-96 at room temperature with mild agitation for 15 minutes; subsequently they were stored for at least 2 hours at 16° C. before sorting and selection for injection. Oocytes selected for injection were incubated overnight in ND-96 at 16° C.
The human GRIN1 (transcript variant NR1-3 (Origene, SKU #: SC115601, Rockville, Md.) and GRIN2D (NCBI locus NM_000836, sequence optimized and synthesized by GenScript) were linearized and transcribed using the mMessage mMachine kit (Life Technologies) and promoters SP6 (for GluN1) and T7 (for GluN2D). cRNAs were mixed together at a ratio of 1 GluN1:2 GluN2. Each oocyte was injected with 50 nL of cRNA and stored in ND96 (96 mM NaCl, 2 mM KCl, 1.8 mM CaCl2, 1 mM MgCl2, 5 mM HEPES, 50 ng/L gentamycin, 100 units/ml penicillin and 100 μg/ml streptomycin; pH 7.6) at 16° C. for 72 h prior to recording.
Currents were recorded using a two-electrode voltage-clamp amplifier (Oocyte Clamp OC-725C; Warner Instrument Corp, Hamden, Conn.), and digitized using Digidata 1550A and pClamp (v. 10) software (Molecular Devices, Sunnyvale, Calif.). Electrodes were filled with 3 M KCl and had resistances that ranged from 0.2-1 MO. All measurements were made at a holding potential of −40 mV. Cells were continuously perfused with oocyte recording solution containing 90 mM NaCl, 1 mM KCl, 0.5 mM BaCl2, and 10 mM HEPES (Ph 7.4). Glutamate and Glycine (co-agonists) were applied at respective concentrations of 10 μM each. Co-agonists were applied until a plateau was reached, and test compounds were then added in the continued presence of co-agonists until a new plateau was reached. After the addition of the last test compound concentration, the oocyte was washed with oocyte recording buffer. Fraction of current remaining was calculated as [(current in presence of test compound−background current)/(co-agonist current−background current)] and IC50 values were computed using Prism 6.0 (Graphpad).

T1 sequence (O15399 28-1336, other chains not shown): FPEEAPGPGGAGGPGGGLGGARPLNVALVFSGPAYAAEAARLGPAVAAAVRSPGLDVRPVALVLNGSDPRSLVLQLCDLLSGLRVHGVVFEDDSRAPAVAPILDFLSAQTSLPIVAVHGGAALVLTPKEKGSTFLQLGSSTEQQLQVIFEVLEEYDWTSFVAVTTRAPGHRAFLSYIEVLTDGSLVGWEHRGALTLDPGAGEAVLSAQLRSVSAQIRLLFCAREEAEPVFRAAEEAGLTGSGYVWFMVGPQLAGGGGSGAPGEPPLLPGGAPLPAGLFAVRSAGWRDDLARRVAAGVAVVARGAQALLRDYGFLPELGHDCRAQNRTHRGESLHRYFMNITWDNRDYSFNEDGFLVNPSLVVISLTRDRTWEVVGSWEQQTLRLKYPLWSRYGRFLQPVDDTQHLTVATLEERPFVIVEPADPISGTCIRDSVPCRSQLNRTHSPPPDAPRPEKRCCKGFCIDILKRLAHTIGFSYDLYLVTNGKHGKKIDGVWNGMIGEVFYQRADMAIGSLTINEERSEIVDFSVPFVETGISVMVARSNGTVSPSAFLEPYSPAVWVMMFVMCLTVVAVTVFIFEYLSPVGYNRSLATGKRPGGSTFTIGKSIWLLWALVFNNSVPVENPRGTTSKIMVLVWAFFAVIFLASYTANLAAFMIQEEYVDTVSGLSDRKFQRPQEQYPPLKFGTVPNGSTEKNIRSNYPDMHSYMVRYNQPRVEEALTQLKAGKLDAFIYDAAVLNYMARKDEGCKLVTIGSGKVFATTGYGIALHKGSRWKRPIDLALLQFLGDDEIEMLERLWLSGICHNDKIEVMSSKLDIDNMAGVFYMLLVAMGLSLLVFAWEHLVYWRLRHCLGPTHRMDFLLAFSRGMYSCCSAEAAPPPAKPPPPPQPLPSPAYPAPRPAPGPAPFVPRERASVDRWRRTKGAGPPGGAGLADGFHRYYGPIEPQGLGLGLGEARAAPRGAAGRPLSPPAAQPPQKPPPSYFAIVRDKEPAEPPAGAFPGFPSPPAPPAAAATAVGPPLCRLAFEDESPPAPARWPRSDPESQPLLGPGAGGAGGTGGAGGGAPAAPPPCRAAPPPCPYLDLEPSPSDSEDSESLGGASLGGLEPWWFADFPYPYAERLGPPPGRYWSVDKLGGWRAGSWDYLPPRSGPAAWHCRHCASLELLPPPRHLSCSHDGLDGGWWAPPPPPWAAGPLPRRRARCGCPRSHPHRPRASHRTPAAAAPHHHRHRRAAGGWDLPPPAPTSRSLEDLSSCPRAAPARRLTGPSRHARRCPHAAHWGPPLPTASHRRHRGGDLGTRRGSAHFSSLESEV

| activation at 10 µM | NR2D Oocyte % Potentiation @ 10 uM | Compound |
| --- | --- | --- |
| 100 to 500% |  | CN(C)C(=O)C1CSc2nc(-c3cnc(C(C)(C)C)c(F)c3)c(C#N)c(=O)n2C1 (stereo not drawn) [Example 161, 8-(6-(tert-butyl)-5-fluoropyridin-3-yl)-7-cyano-N,N-dimethyl-6-oxo-3,4-dihydro-2H,6H-pyrimido[2,1-b][1,3]thiazine-3-carboxamide] |
| 500 to 1000% |  | CC(C)(C)c1ccc(-c2nc3n(c(=O)c2C#N)CC(CF)CS3)cn1 (stereo not drawn) [Example 88, 8-(6-(tert-butyl)pyridin-3-yl)-3-(fluoromethyl)-6-oxo-3,4-dihydro-2H,6H-pyrimido[2,1-b][1,3]thiazine-7-carbonitrile] |
| > 1000% |  | C[C@@H]1CSc2cc(-c3ccc(C4(C)CC4)nc3)c(C#N)c(=O)n2C1 [Example 118, (S)-3-methyl-8-(6-(1-methylcyclopropyl)pyridin-3-yl)-6-oxo-3,4-dihydro-2H,6H-pyrido[2,1-b][1,3]thiazine-7-carbonitrile] |
| > 1000% |  | COC[C@@H]1CSc2nc(-c3cnc(C(C)(C)C)c(F)c3)c(C#N)c(=O)n2C1 [Example 167, (R)-8-(6-(tert-butyl)-5-fluoropyridin-3-yl)-3-(methoxymethyl)-6-oxo-3,4-dihydro-2H,6H-pyrimido[2,1-b][1,3]thiazine-7-carbonitrile] |
| > 1000% |  | C[C@H]1CSc2nc(-c3cnc(C(C)(C)C)nc3)c(C#N)c(=O)n2C1 [Example 73, (R)-8-(2-(tert-butyl)pyrimidin-5-yl)-3-methyl-6-oxo-3,4-dihydro-2H,6H-pyrimido[2,1-b][1,3]thiazine-7-carbonitrile] |
| > 1000% |  | CC(C)(C)c1ncc(-c2nc3n(c(=O)c2C#N)CCCS3)cc1O [Example 127, 8-(6-(tert-butyl)-5-hydroxypyridin-3-yl)-6-oxo-3,4-dihydro-2H,6H-pyrimido[2,1-b][1,3]thiazine-7-carbonitrile] |
| > 1000% |  | C[C@H]1CSc2cc(-c3ccc(C(C)(C)C)nc3)c(C#N)c(=O)n2C1 [Example 96, (R)-8-(6-(tert-butyl)pyridin-3-yl)-3-methyl-6-oxo-3,4-dihydro-2H,6H-pyrido[2,1-b][1,3]thiazine-7-carbonitrile] |
| < 10% |  | CN(C)C(C)(C)c1ccc(-c2nc3n(c(=O)c2C#N)CCCS3)cn1 [Example 128, 8-(6-(2-(dimethylamino)propan-2-yl)pyridin-3-yl)-6-oxo-3,4-dihydro-2H,6H-pyrimido[2,1-b][1,3]thiazine-7-carbonitrile] |
| 500 to 1000% |  | CC(C)(C)c1ncc(-c2nc3n(c(=O)c2C#N)CC(CF)CS3)cn1 (stereo not drawn) [Example 91, 8-(2-(tert-butyl)pyrimidin-5-yl)-3-(fluoromethyl)-6-oxo-3,4-dihydro-2H,6H-pyrimido[2,1-b][1,3]thiazine-7-carbonitrile] |
| 10 to 100% |  | CC1(c2ccc(-c3nc4n(c(=O)c3C#N)CCCS4)cn2)COC1 [Example 154, 8-(6-(3-methyloxetan-3-yl)pyridin-3-yl)-6-oxo-3,4-dihydro-2H,6H-pyrimido[2,1-b][1,3]thiazine-7-carbonitrile] |
| 100 to 500% |  | CC(C)(C)c1ccc(-c2nc3n(c(=O)c2C#N)C[C@H](CF)CS3)cn1 [Example 132, (R)-8-(6-(tert-butyl)pyridin-3-yl)-3-(fluoromethyl)-6-oxo-3,4-dihydro-2H,6H-pyrimido[2,1-b][1,3]thiazine-7-carbonitrile] |
| 500 to 1000% |  | COCC1CSc2nc(-c3cnc(C(C)(C)C)nc3)c(C#N)c(=O)n2C1 (stereo not drawn) [Example 124, 8-(2-(tert-butyl)pyrimidin-5-yl)-3-(methoxymethyl)-6-oxo-3,4-dihydro-2H,6H-pyrimido[2,1-b][1,3]thiazine-7-carbonitrile] |
| < 10% |  | N#Cc1c(-c2ccnc(C3CC3)n2)nc2n(c1=O)CCCS2 [Example 180, 8-(2-cyclopropylpyrimidin-4-yl)-6-oxo-2H,3H,4H,6H-pyrimido[2,1-b][1,3]thiazine-7-carbonitrile] |
| > 1000% |  | CC(C)(C)c1ncc(-c2nc3n(c(=N)c2C#N)CCCS3)cc1F [Example 40, 8-(6-(tert-butyl)-5-fluoropyridin-3-yl)-6-imino-3,4-dihydro-2H,6H-pyrimido[2,1-b][1,3]thiazine-7-carbonitrile] |
| > 1000% |  | CSc1cc(-c2nc3n(c(=O)c2C#N)CCCS3)cnc1C(C)(C)C [Example 62, 8-(6-(tert-butyl)-5-(methylthio)pyridin-3-yl)-6-oxo-3,4-dihydro-2H,6H-pyrimido[2,1-b][1,3]thiazine-7-carbonitrile] |
| > 1000% |  | CC1CSc2nc(-c3cnc(C(C)(C)C)c(F)c3)c(C#N)c(=O)n2C1 (stereo not drawn) [Example 76, 8-(6-(tert-butyl)-5-fluoropyridin-3-yl)-3-methyl-6-oxo-3,4-dihydro-2H,6H-pyrimido[2,1-b][1,3]thiazine-7-carbonitrile] |
| < 10% |  | C[C@@H]1CSc2nc(-c3ccc(C(C)(C)N(C)C)nc3)c(C#N)c(=O)n2C1 [Example 134, (S)-8-(6-(2-(dimethylamino)propan-2-yl)pyridin-3-yl)-3-methyl-6-oxo-3,4-dihydro-2H,6H-pyrimido[2,1-b][1,3]thiazine-7-carbonitrile] |
| > 1000% |  | CC1CSc2nc(-c3cnc(C(C)(C)C)c(O)c3)c(C#N)c(=O)n2C1 (stereo not drawn) [Example 126, 8-(6-(tert-butyl)-5-hydroxypyridin-3-yl)-3-methyl-6-oxo-3,4-dihydro-2H,6H-pyrimido[2,1-b][1,3]thiazine-7-carbonitrile] |
| > 1000% |  | CCOC(=O)NCC1CSc2nc(-c3cnc(C(C)(C)C)c(F)c3)c(C#N)c(=O)n2C1 (stereo not drawn) [Example 147, ethyl ((8-(6-(tert-butyl)-5-fluoropyridin-3-yl)-7-cyano-6-oxo-3,4-dihydro-2H,6H-pyrimido[2,1-b][1,3]thiazin-3-yl)methyl)carbamate] |
| 100 to 500% |  | CC(C)(C)c1ncc(-c2nc3n(c(=O)c2C#N)CCS3)cn1 [Example 4, 7-(2-(tert-butyl)pyrimidin-5-yl)-5-oxo-2,3-dihydro-5H-thiazolo[3,2-a]pyrimidine-6-carbonitrile] |
|  | Inhibitor | CCOC(C)(C)c1ccc(-c2nc3n(c(=O)c2C#N)CC(C)CS3)cn1 (stereo not drawn) [Example 121, 8-(6-(2-ethoxypropan-2-yl)pyridin-3-yl)-3-methyl-6-oxo-3,4-dihydro-2H,6H-pyrimido[2,1-b][1,3]thiazine-7-carbonitrile] |
| 100 to 500% |  | COc1cc(C(C)(C)C)ccc1-c1nc2n(c(=O)c1C#N)CCCS2 [Example 193, 8-(4-tert-butyl-2-methoxyphenyl)-6-oxo-2H,3H,4H,6H-pyrimido[2,1-b][1,3]thiazine-7-carbonitrile] |
| > 1000% |  | CC1CSc2nc(-c3cnc(C(C)(C)C)c(Br)c3)c(C#N)c(=O)n2C1 (stereo not drawn) [Example 58, 8-(5-bromo-6-(tert-butyl)pyridin-3-yl)-3-methyl-6-oxo-3,4-dihydro-2H,6H-pyrimido[2,1-b][1,3]thiazine-7-carbonitrile] |
| 500 to 1000% |  | CC1CSc2nc(-c3ccc(C(C)(C)CF)nc3)c(C#N)c(=O)n2C1 (stereo not drawn) [Example 151, 8-(6-(1-fluoro-2-methylpropan-2-yl)pyridin-3-yl)-3-methyl-6-oxo-3 4-dihydro-2H,6H-pyrimido[2,1-b][1,3]thiazine-7-carbonitrile] |
| 500 to 1000% |  | CC(C)(C)c1ccc(-c2nc3n(c(=O)c2C#N)CC(CO)CS3)cn1 (stereo not drawn) [Example 87, 8-(6-(tert-butyl)pyridin-3-yl)-3-(hydroxymethyl)-6-oxo-3,4-dihydro-2H,6H-pyrimido[2,1-b][1,3]thiazine-7-carbonitrile] |
| < 10% |  | C[S+]([O-])c1c(-c2ccc(C(C)(C)C)cc2)nc2n(c1=O)CCCC2 (stereo not drawn) [Example 26, 2-(4-(tert-butyl)phenyl)-3-(methylsulfinyl)-6,7,8,9-tetrahydro-4H-pyrido[1,2-a]pyrimidin-4-one] |
| > 1000% |  | C[C@@H]1CSc2nc(-c3cnc(C(C)(C)C)nc3)c(C#N)c(=N)n2C1 [Example 101, (S)-8-(2-(tert-butyl)pyrimidin-5-yl)-6-imino-3-methyl-3,4-dihydro-2H,6H-pyrimido[2,1-b][1,3]thiazine-7-carbonitrile] |
